Source: patent US8426429B2, “2-amino-quinazoline derivatives useful as inhibitors of β-secretase (BACE)” (Jansssen Pharmaceutica N.V., priority 2004, dated 2013)
Several values for one entry are separate records, joined by “and”; a condition that tells them apart may be missing. Equal values may be shown once.

Target: T1, β-secretase (BACE) (Homo sapiens, UniProt P56817)
T1 construct: purchased Panvera
Test: BACE FS1 % Inhibition Assay
Format: biochemical
Procedure, shortened: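 Percent inhibition per compound concentration was referenced to vehicle-treated enzyme and no-enzyme wells. Enzyme at a 4 μg/mL working stock plus compound was mixed for 20 min at room temperature before the FS1 substrate (300 μg/mL working stock) was added for a 1 h room-temperature reaction.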

T1 sequence (P56817 46-501): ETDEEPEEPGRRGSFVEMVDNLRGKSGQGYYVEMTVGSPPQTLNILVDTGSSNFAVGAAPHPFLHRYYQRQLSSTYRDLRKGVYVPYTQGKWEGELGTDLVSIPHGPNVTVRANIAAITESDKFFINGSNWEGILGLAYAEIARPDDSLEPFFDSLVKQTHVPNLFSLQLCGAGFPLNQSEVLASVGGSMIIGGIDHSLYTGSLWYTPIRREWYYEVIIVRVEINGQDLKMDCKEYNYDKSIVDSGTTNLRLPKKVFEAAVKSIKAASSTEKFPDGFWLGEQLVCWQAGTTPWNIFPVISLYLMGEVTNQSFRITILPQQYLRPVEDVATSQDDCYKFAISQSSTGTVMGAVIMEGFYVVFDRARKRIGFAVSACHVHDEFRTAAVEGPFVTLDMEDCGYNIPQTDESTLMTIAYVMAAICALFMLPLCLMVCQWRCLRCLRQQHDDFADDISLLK

% Inhibition (FS) (0.3 μM test compound) [%]	% Inhibition (FS) (1 μM test compound) [%]	% Inhibition (FS) (3 μM test compound) [%]	% Inhibition (FS) (3 μM test compound, 3 µM)	SMILES
<30	<30	<30		CN(CCN1Cc2cc(Oc3ccccc3)ccc2N=C1N)C1CCCCC1 [Compound 429]
<30	39	67		NC1=Nc2ccc(Oc3ccccc3)cc2CN1Cc1cccc(C(=O)N2CCCCC2)c1 [Compound 443]
<30	<30	<30		NC1=Nc2ccc(Oc3ccccc3)cc2CN1Cc1cccc(C(=O)NC2CCCCC2)c1 [Compound 451]
<30	<30	<30		CN(C(=O)c1ccccc1CN1Cc2cc(Oc3ccccc3)ccc2N=C1N)C1CCCCC1 [Compound 463]
<30	<30	<30		COc1ccc(C)cc1Oc1ccc2c(c1)CN(Cc1cccc(C(=O)N(C)C3CCCCC3)c1)C(N)=N2 [Compound 467]
<30	<30	<30		COc1cccc(C)c1Oc1ccc2c(c1)CN(Cc1cccc(C(=O)N(C)C3CCCCC3)c1)C(N)=N2 [Compound 468]
<30	<30	31		CN(C(=O)c1cccc(CN2Cc3cc(Oc4ccccc4-c4nc5ccccc5s4)ccc3N=C2N)c1)C1CCCCC1 [Compound 470]
<30	<30	38		CN(C(=O)c1cccc(CN2Cc3cc(Oc4ccccc4-n4cccc4)ccc3N=C2N)c1)C1CCCCC1 [Compound 471]
<30	<30	<30		CN(C(=O)c1cccc(CN2Cc3cc(Oc4ccccc4S(C)(=O)=O)ccc3N=C2N)c1)C1CCCCC1 [Compound 472]
<30	<30	<30		CN(C(=O)c1cccc(CN2Cc3cc(Oc4cccc(-c5ccc6ccccc6n5)c4)ccc3N=C2N)c1)C1CCCCC1 [Compound 473]
<30	<30	<30		CSc1ccccc1Oc1ccc2c(c1)CN(Cc1cccc(C(=O)N(C)C3CCCCC3)c1)C(N)=N2 [Compound 474]
<30	<30	<30		Cc1cccc(C)c1Oc1ccc2c(c1)CN(Cc1cccc(C(=O)N(C)C3CCCCC3)c1)C(N)=N2 [Compound 475]
<30	<30	46		CC(C)Oc1ccccc1Oc1ccc2c(c1)CN(Cc1cccc(C(=O)N(C)C3CCCCC3)c1)C(N)=N2 [Compound 478]
<30	<30	81		CN(C)c1cccc(Oc2ccc3c(c2)CN(Cc2cccc(C(=O)N(C)C4CCCCC4)c2)C(N)=N3)c1 [Compound 479]
<30	<30	<30		CN(C(=O)c1cccc(CN2Cc3cc(Oc4ccccc4C(=O)N4CCCC4)ccc3N=C2N)c1)C1CCCCC1 [Compound 483]
<30	<30	90		CN(C(=O)c1ccc(CN2Cc3cc(Oc4ccccc4)ccc3N=C2N)s1)C1CCCCC1 [Compound 503]
<30	<30	51		CN(C(=O)c1cccc(CN2Cc3cc(Oc4ccccc4C4CCCC4)ccc3N=C2N)c1)C1CCCCC1 [Compound 512]
<30	<30	<30		CN(C(=O)c1cccc(CN2Cc3cc(OCc4ccccc4-c4ccccc4)ccc3N=C2N)c1)C1CCCCC1 [Compound 513]
<30	<30	<30		COc1cccc(COc2ccc3c(c2)CN(Cc2cccc(C(=O)N(C)C4CCCCC4)c2)C(N)=N3)c1 [Compound 514]

The remaining lines, values behind:

SMILES	% Inhibition (FS) (0.3 μM test compound) [%]	% Inhibition (FS) (1 μM test compound) [%]	% Inhibition (FS) (3 μM test compound) [%]	% Inhibition (FS) (3 μM test compound, 3 µM)
COc1cccc(Nc2ccc3c(c2)CN(Cc2cccc(C(=O)N(C)C4CCCCC4)c2)C(N)=N3)c1 [Compound 433]	<30	33	88	
COc1ccc(Nc2ccc3c(c2)CN(Cc2cccc(C(=O)N(C)C4CCCCC4)c2)C(N)=N3)cc1 [Compound 434]	<30	<30	<30	
Cc1cccc(Nc2ccc3c(c2)CN(Cc2cccc(C(=O)N(C)C4CCCCC4)c2)C(N)=N3)c1 [Compound 435]	<30	<30	85	
CN(C(=O)c1cccc(CN2Cc3cc(Nc4ccc5ccccc5c4)ccc3N=C2N)c1)C1CCCCC1 [Compound 436]	<30	37	50	
CN(C(=O)c1cccc(CN2Cc3cc(Nc4ccc(C5CCCCC5)cc4)ccc3N=C2N)c1)C1CCCCC1 [Compound 437]	<30	<30	38	
CN(C)c1ccc(Nc2ccc3c(c2)CN(Cc2cccc(C(=O)N(C)C4CCCCC4)c2)C(N)=N3)cc1 [Compound 438]	<30	<30	<30	
CN(C(=O)c1cccc(CN2Cc3cc(Nc4ccc(N5CCOCC5)cc4)ccc3N=C2N)c1)C1CCCCC1 [Compound 439]	<30	<30	<30	
CCOc1cccc(Nc2ccc3c(c2)CN(Cc2cccc(C(=O)N(C)C4CCCCC4)c2)C(N)=N3)c1 [Compound 440]	<30	35	72	
CN(C(=O)c1cccc(CN2Cc3cc(Nc4ccc5c(c4)OCO5)ccc3N=C2N)c1)C1CCCCC1 [Compound 441]	<30	29	48	
CSc1ccc(Nc2ccc3c(c2)CN(Cc2cccc(C(=O)N(C)C4CCCCC4)c2)C(N)=N3)cc1 [Compound 442]	<30	58	101	
CC(C)[C@@H](CCC(=O)N(C)C1CCCCC1)N1Cc2cc(Oc3ccccc3)ccc2N=C1N [Compound 444]	<30	<30	30	
NC1=Nc2ccc(Oc3ccccc3)cc2CN1C(CCCC(=O)N1CCCCC1)CCC(=O)N1CCCCC1 (stereo not drawn) [Compound 452]	<30	42	78	
COc1cccc(OC)c1Oc1ccc2c(c1)CN(CCC(=O)NC1C3CC4CC(C3)CC1C4)C(N)=N2 (stereo not drawn) [Compound 465]	<30	<30	<30	
CC(C)c1ccccc1Oc1ccc2c(c1)CN(CCC(=O)NC1C3CC4CC(C3)CC1C4)C(N)=N2 (stereo not drawn) [Compound 466]	<30	<30	53	
COc1ccc(-c2nc3ccccc3s2)c(Oc2ccc3c(c2)CN(Cc2cccc(C(=O)N(C)C4CCCCC4)c2)C(N)=N3)c1 [Compound 469]	<30	<30	<30	
COc1cccc(OC)c1Oc1ccc2c(c1)CN(Cc1cccc(C(=O)N(C)C3CCCCC3)c1)C(N)=N2 [Compound 477]	<30	<30	<30	
C=CCc1cccc(C)c1Oc1ccc2c(c1)CN(Cc1cccc(C(=O)N(C)C3CCCCC3)c1)C(N)=N2 [Compound 480]	<30	<30	38	
C=CCc1cccc(OC)c1Oc1ccc2c(c1)CN(Cc1cccc(C(=O)N(C)C3CCCCC3)c1)C(N)=N2 [Compound 481]	<30	<30	32	
CCCc1cccc(C)c1Oc1ccc2c(c1)CN(Cc1cccc(C(=O)N(C)C3CCCCC3)c1)C(N)=N2 [Compound 482]	<30	<30	43	
C[C@@H](CNC(=O)C1CCCCC1)N1Cc2cc(Oc3ccccc3)ccc2N=C1N [Compound 486]	<30	<30	<30	
COc1ccccc1-c1ccc2c(c1)CN(CCNC(=O)C1(C(N)=O)CC1)C(N)=N2 [Compound 488]	<30	<30	<30	
COc1ccccc1-c1ccc2c(c1)CN(CCNC(=O)CN)C(N)=N2 [Compound 490]	<30	<30	<30	
COc1ccccc1-c1ccc2c(c1)CN(CCNC(=O)C1CCN(C(C)=O)CC1)C(N)=N2 [Compound 491]	<30	<30		44% and <30%
COc1ccccc1-c1ccc2c(c1)CN(CCNC(=O)CCN)C(N)=N2 [Compound 493]	<30	<30	49	
COc1ccccc1-c1ccc2c(c1)CN(CCNC(=O)CCCN)C(N)=N2 [Compound 494]	<30	<30	<30	
CC1CCCCN1C(=O)CCCC(CCC(=O)N1CCCCC1C)N1Cc2cc(Oc3ccccc3)ccc2N=C1N (stereo not drawn) [Compound 504]	<30	31	96	
CC(C)(C)OC(=O)N1CCC(CN2Cc3cc(Oc4ccccc4)ccc3N=C2N)CC1 [Compound 509]	<30	<30	41	
CC(C)(C)OC(=O)N1CCCCC(N2Cc3cc(Oc4ccccc4)ccc3N=C2N)C1 (stereo not drawn) [Compound 510]	<30	<30	37	
